# Results taken from patent publication EP0068038A1, “(+)-(4R,6S)-(E)-6-(2-(4'-fluoro-3,3',5-trimethyl-(1,1'-biphenyl)-2-yl)ethenyl)-3,4,5,6-tetrahydro-4-hydroxy-2H-pyran-2-one, a process for preparing and a pharmaceutical composition containing the same” (Merck & Co., Inc., priority 1981, dated 1983).
# pIC50: −log10 of the molar value. Where two headings read alike, the source gives them in different places.
# Legend:
# [1] = molecular target: T1, 3-hydroxy-3-methylglutaryl-coenzyme A reductase (Rattus norvegicus, UniProt P51639); conditions: from E.P. publication 0 024 348, cited from earlier work
# T1 sequence (P51639 1-887): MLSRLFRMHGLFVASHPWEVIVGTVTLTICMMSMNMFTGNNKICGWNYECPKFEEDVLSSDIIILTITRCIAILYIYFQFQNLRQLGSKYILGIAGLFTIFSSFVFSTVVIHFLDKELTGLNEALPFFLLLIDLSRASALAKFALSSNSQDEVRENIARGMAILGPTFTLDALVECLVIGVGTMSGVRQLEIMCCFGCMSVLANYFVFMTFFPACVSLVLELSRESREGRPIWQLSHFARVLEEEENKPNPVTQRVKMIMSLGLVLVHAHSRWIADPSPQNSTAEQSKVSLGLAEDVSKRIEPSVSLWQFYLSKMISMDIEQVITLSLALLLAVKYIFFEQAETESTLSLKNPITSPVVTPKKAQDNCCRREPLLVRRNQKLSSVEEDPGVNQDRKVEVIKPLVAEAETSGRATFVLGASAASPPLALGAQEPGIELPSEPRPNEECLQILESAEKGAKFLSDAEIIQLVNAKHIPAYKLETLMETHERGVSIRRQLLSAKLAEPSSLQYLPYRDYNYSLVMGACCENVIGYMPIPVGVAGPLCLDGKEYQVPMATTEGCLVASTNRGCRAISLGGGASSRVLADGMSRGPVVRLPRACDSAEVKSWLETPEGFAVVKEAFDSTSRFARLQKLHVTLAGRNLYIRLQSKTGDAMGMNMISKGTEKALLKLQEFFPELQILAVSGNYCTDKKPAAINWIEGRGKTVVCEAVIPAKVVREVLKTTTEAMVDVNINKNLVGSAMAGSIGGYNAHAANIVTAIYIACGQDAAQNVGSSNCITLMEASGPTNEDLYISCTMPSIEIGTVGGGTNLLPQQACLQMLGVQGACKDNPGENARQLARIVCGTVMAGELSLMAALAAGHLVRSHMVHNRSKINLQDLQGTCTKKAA
# [2] = molecular target: T1, 3-hydroxy-3-methylglutaryl-coenzyme A reductase; experiment: Method A: in vitro enzyme inhibition (method of Knauss et al.); type: biochemical
compound,measurement,setting,value
"O=C1CC(O)CC(CCc2c(Cl)cc(Cl)cc2OCc2ccccc2)O1 (single isomer, unassigned; (+)) [6-[2-(2,4-dichloro-6-(phenylmethoxy)phenyl)ethyl]-3,4,5,6-tetrahydro-4-hydroxy-2H-pyran-2-one]",pIC50,"[1]; method A, tested as the sodium salts of the corresponding dihydroxy acid forms",7.17
"O=C1C[C@H](O)C[C@@H](/C=C/c2c(Cl)cc(Cl)cc2-c2ccc(F)cc2)O1 [(E)-6-[2-(3,5-dichloro-4'-fluoro[l,l'-biphenyl]-2-yl)ethenyl]-3,4,5,6-tetrahydro-4-hydroxy-2H-pyran-2-one]","inhibitory potency (relative, in words)","[1]; compared with the (+) trans enantiomer of the 2,4-dichloro-6-(phenylmethoxy)phenyl compound, tested as sodium salt of the dihydroxy acid",even more potent
"Cc1cc(C)c(/C=C/[C@@H]2C[C@@H](O)CC(=O)O2)c(-c2ccc(F)c(C)c2)c1 [III, (+)-(4R, 6S)-(E)-6-[2-(3,3',5-trimethyl-4'-fluoro-[1,1'-biphenyl]-2-yl)ethenyl]-3,4,5,6-tetrahydro-4-hydroxy-2H-pyran-2-one]",inhibition of cholesterol biosynthesis (in words),"[2]; compared with compactin, test not specified",surpassing the inhibitory activity of compactin
same,"inhibitory potency (relative, in words)","[2]; compared with the (+) trans 3,5-dichloro-4'-fluoro-biphenyl compound, tested as sodium salt of the dihydroxy acid",several times more potent
